Holding throughout (assay type): biochemical
The target in one assay is T1, SHP2 (Homo sapiens, UniProt Q06124).
T1 construct: fusion proteins which only carry the PTP activity domain were expressed in Escherichia coli DH5α; GST (N); made in house; host or cells: Escherichia coli DH5α
T1 sequence (Q06124 247-517 limits assumed): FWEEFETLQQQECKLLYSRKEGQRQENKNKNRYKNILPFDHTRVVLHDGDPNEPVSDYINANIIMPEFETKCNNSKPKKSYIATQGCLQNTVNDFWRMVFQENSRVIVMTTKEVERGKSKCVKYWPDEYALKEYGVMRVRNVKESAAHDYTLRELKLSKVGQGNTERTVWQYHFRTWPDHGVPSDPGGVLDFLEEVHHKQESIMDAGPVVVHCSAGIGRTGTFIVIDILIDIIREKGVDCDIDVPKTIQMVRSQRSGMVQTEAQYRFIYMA
The assay can be described thus: PTP assay with pNPP as substrate, SHP2. Particulars: GST-ΔSHP2 PTP activity domain, 37 °C, pH 5.5. The text has this: (§1) Protein tyrosine phosphatases (PTPs) constitute a large family of signaling enzymes that control the cellular levels of protein tyrosine phosphorylation. Several “classical” PTPs are attractive therapeutic targets, including PTP1B for obesity and Type II diabetes, SHP1, and SHP2 and CDC25B for cancer. GST-ΔPTP1B, GST-ΔSHP2, GST-ΔSHP1, GST-ΔLAR and GST-ΔCDC25B fusion proteins which only carry the PTP activity domain were expressed in Escherichia coli DH5α and affinity purified with glutathione Sepharose (Amersham Biosciences, Piscataway, NJ, USA). p-Nitrophenyl phosphate (pNPP) was used in the enzymatic reactions to determine the intrinsic catalytic activities of the PTPs. All assays using pNPP as the substrate were performed in a buffered reaction medium containing 10 mM of sodium acetate (NaAc), 1 mM of ethylenediaminetetraacetic acid and 1 mM of dithiothreitol at 37 °C, pH 5.5. Sodium orthovanadate was used as the positive control. Every experiment was performed in triplicate. The inhibitory activity measurements of PTPs were performed with different concentrations (0, 2.5, 5, 10, 20, 40 µg mL^−1) of inhibitor and 20 µg mL^−1 of PTPs. The reaction mixture was incubated at 37 °C for 15 min and the catalytic activity was detected by monitoring the absorbance at 405 nm immediately after adding 12.5 mM of pNPP. IC50 (the concentration of an inhibitor that is required for 50% inhibition of an enzyme) data were derived from the experimental results.

Another assay has as its target T2, SHP1 (Homo sapiens, UniProt P29350).
T2 construct: fusion proteins which only carry the PTP activity domain were expressed in Escherichia coli DH5α; GST (N); made in house; host or cells: Escherichia coli DH5α
T2 sequence (P29350 244-515 limits assumed): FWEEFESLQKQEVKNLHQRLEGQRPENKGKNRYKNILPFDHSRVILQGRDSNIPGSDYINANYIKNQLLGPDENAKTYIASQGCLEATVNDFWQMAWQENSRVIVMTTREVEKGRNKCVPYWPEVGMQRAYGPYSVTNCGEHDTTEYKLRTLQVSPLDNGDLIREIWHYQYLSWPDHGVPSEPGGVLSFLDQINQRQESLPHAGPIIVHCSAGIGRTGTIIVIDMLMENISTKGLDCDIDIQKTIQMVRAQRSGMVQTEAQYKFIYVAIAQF
The assay can be described thus: PTP assay with pNPP as substrate, SHP1. To be noted: GST-ΔSHP1 PTP activity domain, 37 °C, pH 5.5.
Description: as §1

In the next assay the target is T3, CDC25B (Homo sapiens, UniProt P30305).
T3 construct: fusion proteins which only carry the PTP activity domain were expressed in Escherichia coli DH5α; GST (N); made in house; host or cells: Escherichia coli DH5α
T3 sequence (P30305 431-538 limits assumed): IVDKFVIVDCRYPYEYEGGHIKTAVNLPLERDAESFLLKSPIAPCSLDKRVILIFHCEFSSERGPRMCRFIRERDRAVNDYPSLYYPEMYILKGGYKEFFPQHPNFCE
The assay can be described thus: PTP assay with pNPP as substrate, CDC25B. To be noted: GST-ΔCDC25B PTP activity domain, 37 °C, pH 5.5.
Description: as §1

The next assay has as its target T4, PTP1B (Homo sapiens, UniProt P18031).
T4 construct: fusion proteins which only carry the PTP activity domain were expressed in Escherichia coli DH5α; GST (N); made in house; host or cells: Escherichia coli DH5α
T4 sequence (P18031 3-277 limits assumed): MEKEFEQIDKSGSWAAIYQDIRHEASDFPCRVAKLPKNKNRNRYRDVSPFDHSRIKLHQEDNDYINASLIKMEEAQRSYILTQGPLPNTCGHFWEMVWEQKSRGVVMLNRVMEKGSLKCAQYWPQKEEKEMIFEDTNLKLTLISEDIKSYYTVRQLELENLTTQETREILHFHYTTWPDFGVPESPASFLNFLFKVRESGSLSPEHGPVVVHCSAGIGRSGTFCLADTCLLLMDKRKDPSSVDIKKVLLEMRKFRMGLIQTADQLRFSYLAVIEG
The experiment in a line: PTP assay with pNPP as substrate, PTP1B. Particulars: GST-ΔPTP1B PTP activity domain, 37 °C, pH 5.5. The text has this:
Protein tyrosine phosphatases (PTPs) constitute a large family of signaling enzymes that control the cellular levels of protein tyrosine phosphorylation. Several “classical” PTPs are attractive therapeutic targets, including PTP1B for obesity and Type II diabetes, SHP1, and SHP2 and CDC25B for cancer. GST-ΔPTP1B, GST-ΔSHP2, GST-ΔSHP1, GST-ΔLAR and GST-ΔCDC25B fusion proteins which only carry the PTP activity domain were expressed in Escherichia coli DH5α and affinity purified with glutathione Sepharose (Amersham Biosciences, Piscataway, NJ, USA). p-Nitrophenyl phosphate (pNPP) was used in the enzymatic reactions to determine the intrinsic catalytic activities of the PTPs. All assays using pNPP as the substrate were performed in a buffered reaction medium containing 10 mM of sodium acetate (NaAc), 1 mM of ethylenediaminetetraacetic acid and 1 mM of dithiothreitol at 37 °C, pH 5.5. […] Every experiment was performed in triplicate. The inhibitory activity measurements of PTPs were performed with different concentrations (0, 2.5, 5, 10, 20, 40 µg mL^−1) of inhibitor and 20 µg mL^−1 of PTPs. The reaction mixture was incubated at 37 °C for 15 min and the catalytic activity was detected by monitoring the absorbance at 405 nm immediately after adding 12.5 mM of pNPP.

The next assay concerns the target T5, LAR (Homo sapiens, UniProt P10586).
T5 construct: fusion proteins which only carry the PTP activity domain were expressed in Escherichia coli DH5α; GST (N); made in house; host or cells: Escherichia coli DH5α
T5 sequence (P10586 1352-1607 limits assumed): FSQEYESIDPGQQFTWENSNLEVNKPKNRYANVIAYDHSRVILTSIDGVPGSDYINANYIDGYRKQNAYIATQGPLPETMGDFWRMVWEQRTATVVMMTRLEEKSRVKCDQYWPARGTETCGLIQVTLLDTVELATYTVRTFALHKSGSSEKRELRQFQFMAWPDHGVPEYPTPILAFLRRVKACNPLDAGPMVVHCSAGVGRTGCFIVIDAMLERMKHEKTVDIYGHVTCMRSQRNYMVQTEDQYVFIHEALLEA
The assay can be described thus: PTP assay with pNPP as substrate, LAR. Particulars: GST-ΔLAR PTP activity domain, 37 °C, pH 5.5.
Description: as §1

Take `[Na+].[Na+].[Na+].[O]=[V]([O-])([O-])[O-]` [Sodium orthovanadate, reference compound]: the “IC50 Values SHP2” value on SHP2 was 122.2 µg/mL. For the same compound, on SHP1, the “IC50 Values SHP1” value came out at 4.3 µg/mL.

As to `Cc1cc(O)cc(O)c1C(=O)O[C@]1(C)C(=O)C=C2C=C(/C=C/C(=O)O)OC[C@H]2[C@@H]1O` [Compound 2, (E)-3-((7S,8S,8aS)-7-((2,4-dihydroxy-6-methylbenzoyl)oxy)-8-hydroxyl-7-methyl-6-oxo-6,7,8,8a-tetra-hydro-1H-isochromen-3-yl)acrylic acid], the IC50 (as a rule, the concentration that gives 50% inhibition) at CDC25B was 10.8 µM; against SHP2 it was 19.2 µM; against SHP1, 8.17 µM; against PTP1B, 16.3 µM; on LAR, 11.3 µM.

Turning to `CC1(O)C2OC(=O)CCC(=O)NC3(Oc4ccc(C(=O)O)c(O)c4C(=O)C13)C2(C)O` (single isomer, unassigned; (+)) [Compound 3], the IC50 was 18 µM on CDC25B; 13.5 µM on SHP2; 11.6 µM against SHP1; 17.3 µM at PTP1B; more than 119 µM on LAR.

Turning to `COC(c1cc2c([nH]1)C(=O)c1cc(C(OC)C(C)C)[nH]c1C2=O)C(C)C` (centres unmarked) [Compound 1, 2,6-bis(1-methoxy-2-methylpropyl) pyrrolo[2,3-f]indole-4,8(1H,5H)-dione], the IC50 is 11.4 µM on CDC25B; more than 139 µM on SHP2; 15.6 µM on SHP1; 34.9 µM on PTP1B; 29.6 µM on LAR.

Values taken from article PMC6272775, “Three New Pigment Protein Tyrosine Phosphatases Inhibitors from the Insect Parasite Fungus Cordyceps gracilioides: Terreusinone A, Pinophilin C and Cryptosporioptide A” (Molecules, 2015).
